Patent publication US5444043A, “Cyclic heptapeptide anti-inflammatory agent” (The Regents of the University of California, priority 1994, dated 1995)

Assays:
Type in all cases: in vivo
[1] = tested on: phorbol-induced inflammation (edema) of mouse ears; test: Inhibition of mouse ear edema, systemic study (IP); conditions: 1 hour prior
[2] = tested on: phorbol-induced inflammation (edema) of mouse ears; test: Inhibition of phorbol (PMA)-induced mouse ear edema, standard protocol (topical); conditions: for Inhibition of Mouse Ear Edema: 3 h 20 min, relative to PMA control
Protocol: (§1) Cyclomarin-A was tested by measuring inhibition of phorbol-induced inflammation (edema) of mouse ears. […] The compound is topically applied in acetone to the inside pinnae of the ears of mice in a solution containing the edema-causing irritant, i.e. phorbol 12-myristate 13-acetate (PMA). PMA alone (2 microgram per ear) or in combination with varying amounts of cyclomarin-A was applied to the left ears of (5 mice per treatment group). Acetone was applied to all right ears. After a 3-hour and 20-minute incubation at 23° C., the mice were sacrificed, the ears removed and bores taken and weighed. Edema was measured by subtracting the weight of the right ear (acetone control) from the weight of the left ear (treated). The results were recorded as a percent decrease (inhibition) or percent increase (potentiation) in edema relative to the PMA control group edema.

[3] = tested on: phorbol-induced inflammation (edema) of mouse ears; test: Inhibition of mouse ear edema, time of addition study; conditions: 50 ug/ear
Protocol: as §1, with “The compound is topically applied in acetone to the inside pinnae of the ears of mice in a solution containing the edema-causing irritant, i.e. phorbol 12-myristate 13-acetate (PMA).” left out

Substance: cyclomarin-A
- Inhibition of Mouse Ear Edema ([1]; 25 mg/kg IP): 28.0%
- Inhibition of Mouse Ear Edema ([1]; 50 mg/kg IP): 55.0%
- Inhibition of Mouse Ear Edema ([1]; 100 mg/kg IP): 48.0%
- Inhibition of Mouse Ear Edema ([2]; 5 ug/ear topical with PMA 2 microgram per ear): 3.0%
- Inhibition of Mouse Ear Edema ([2]; 10 ug/ear topical with PMA 2 microgram per ear): 39.0%
- Inhibition of Mouse Ear Edema ([2]; 25 ug/ear topical with PMA 2 microgram per ear): 57.0%
- Inhibition of Mouse Ear Edema ([2]; 50 ug/ear topical with PMA 2 microgram per ear): 88.0%
- Inhibition of Mouse Ear Edema ([2]; 100 ug/ear topical with PMA 2 microgram per ear): 96.2%
- topical anti-inflammatory activity ([2]; topical, statement in words): exhibit topical anti-inflammatory activity
- Inhibition of Mouse Ear Edema ([3]; time of addition 0 mins): 82.8%
- Inhibition of Mouse Ear Edema ([3]; time of addition +30 mins): 50.9%
- Inhibition of Mouse Ear Edema ([3]; time of addition +60 mins): 12.0%
- Inhibition of Mouse Ear Edema ([3]; time of addition -30 mins): 79.4%
- Inhibition of Mouse Ear Edema ([3]; time of addition -60 mins): 51.8%
